Activity calls are given as the source filed them. The calls are words filed in the database; no cut-off is given here.

The test system of one assay is Neisseria gonorrhoeae. In words: Antimicrobial activity against Neisseria gonorrhoeae infected in mouse RAW264.7 cells assessed as reduction in bacteria-induced cytotoxicity at 50 uM after 24 hrs by lactate dehydrogenase release assay relative to control. The class given is functional. On the set-up: scale not given: the % may be the effect or the level left.
Assay [1] has as its system Neisseria meningitidis. In words: Antimicrobial activity against Neisseria meningitidis infected in mouse RAW264.7 cells assessed as reduction in bacteria-induced cytotoxicity at 50 uM after 24 hrs by lactate dehydrogenase release assay relative to control. The class given is functional. On the set-up: scale not given: the % may be the effect or the level left.
The test system of assay [2] is Neisseria meningitidis. In words: Inhibition of Neisseria meningitidis Mip NEIS0004 assessed as remaining activity using Suc-ALPF-pNA substrate measured at 400 nM by protease coupled assay relative to control.
The subject of assay [3] is Burkholderia pseudomallei. In words: Inhibition of Burkholderia pseudomallei Mip PPIase activity assessed as remaining activity using Suc-ALPF-pNA substrate measured at 400 nM by protease coupled assay relative to control.
For assay [4], the system named is Neisseria meningitidis. In words: Inhibition of Neisseria meningitidis Mip PPIase activity assessed as remaining activity using Suc-ALPF-pNA substrate measured at 400 nM by protease coupled assay relative to control.
For assay [5], the system named is Burkholderia pseudomallei. In words: Antimicrobial activity against Burkholderia pseudomallei K96243 infected in mouse RAW264.7 cells assessed as reduction in bacteria-induced cytotoxicity at 50 uM after 24 hrs by lactate dehydrogenase release assay relative to control. The format is functional. On the set-up: scale not given: the % may be the effect or the level left.

A short description of assay [6]: Binding affinity to Burkholderia pseudomallei Mip measured after 1 hr by fluorescence polarization assay.

For `O=C(NCc1cccnc1)[C@H](CCc1ccccc1)NC(=O)[C@@H]1CCCCN1S(=O)(=O)Cc1ccccc1`, the Activity in the assay on Neisseria gonorrhoeae was 71.5%; with Neisseria meningitidis [1] it was 34.1%; with Neisseria meningitidis [2], 12.9%; in assay [3], 17.6%; in the assay on Neisseria meningitidis [4], 44.8%; in assay [5], 75.4%. Also, the Ki in assay [6] (read-out: Ki) amounted to 10.5 nM.

With `O=C(NCc1cccnc1)[C@H](Cc1ccccc1)OC(=O)[C@@H]1CCCCN1S(=O)(=O)c1ccccc1`, the Activity with Neisseria gonorrhoeae was found to be 64.6%; in the assay with Neisseria meningitidis [1], 41.5%; in the assay with Neisseria meningitidis [2], 6.7%; in assay [3], 7%; in the assay with Neisseria meningitidis [4], 10%; in assay [5] it was 72.5%. The Ki in assay [6] (read-out: Ki) worked out at 122 nM.

As for `O=C(NCc1cccnc1)C(CCc1ccccc1)COC(=O)[C@@H]1CCCCN1S(=O)(=O)Cc1ccccc1` (mixture of isomers), the Activity in the assay on Neisseria gonorrhoeae is 63.5%; in the assay with Neisseria meningitidis [1], 16.4%; in the assay on Neisseria meningitidis [2] it was 8.4%; in assay [3] it was 28.7%; in the assay on Neisseria meningitidis [4] it was 47%; in assay [5], 93.4%. Further, the Ki in assay [6] (read-out: Ki) came out at 207 nM.

For the compound `O=C(NCc1cccnc1)C(CCc1ccccc1)COC(=O)[C@H]1CCCCN1S(=O)(=O)Cc1ccccc1` (mixture of isomers), the Activity stood at 21.2% with Neisseria meningitidis [1]; 119% in the assay on Neisseria meningitidis [2]; 140% in assay [3]; 93.7% in the assay on Neisseria meningitidis [4]; 95.7% in assay [5]. The inhibition constant Ki entry in assay [6] was “Not Active”.

For the compound `CC(C)[C@H](OC(=O)C1CCCCN1S(=O)(=O)Cc1ccccc1)C(=O)NCc1cccnc1` (mixture of isomers), the Activity stood at 65.1% with Neisseria gonorrhoeae; 52.5% in the assay with Neisseria meningitidis [1]; 10.9% in the assay with Neisseria meningitidis [2]; 13.9% in assay [3]; 25.2% in the assay on Neisseria meningitidis [4]; 96.8% in assay [5]. Besides, in assay [6] (read-out: Ki), the Ki came to 1080 nM.

In the case of `CC(C)C[C@H](NC(=O)[C@@H]1CCCCN1S(=O)(=O)Cc1ccc(F)cc1)C(=O)NCc1cccnc1`, the Activity in the assay with Neisseria gonorrhoeae turned out to be 61.7%; with Neisseria meningitidis [1] it was 56.2%; with Neisseria meningitidis [2] it was 4.2%; in assay [3], 5.8%; with Neisseria meningitidis [4], 23.6%; in assay [5], 46.8%. Moreover, in assay [6] (read-out: Ki), the Ki amounted to 45.6 nM.

Regarding `CC(C)C[C@H](OC(=O)C1CCCCN1S(=O)(=O)Cc1ccccc1)C(=O)NCc1cccnc1` (mixture of isomers), the Activity with Neisseria meningitidis [1] was 36.9%; with Neisseria meningitidis [2], 3.4%; in assay [3] it was 17.4%; with Neisseria meningitidis [4] it was 22.1%; in assay [5], 93.2%. For the same compound, the Ki in assay [6] (read-out: Ki) stood at 15.8 nM.

`O=C(NCc1cccnc1)[C@@H](CCc1ccccc1)NC(=O)[C@@H]1CCCCN1S(=O)(=O)Cc1ccccc1`: the Activity is 41.9% in the assay on Neisseria gonorrhoeae; 69.9% in the assay on Neisseria meningitidis [1]; 39.9% with Neisseria meningitidis [2]; 23.4% in assay [3]; 83.7% with Neisseria meningitidis [4]; 88.7% in assay [5]. Further, the Ki in assay [6] (read-out: Ki) came out at 320 nM.

As for `O=C(NCc1cccnc1)C(CCc1cccnc1)OC(=O)[C@@H]1CCCCN1S(=O)(=O)c1ccccc1` (mixture of isomers), the Activity with Neisseria gonorrhoeae came to 52%; with Neisseria meningitidis [1], 84.4%; in the assay on Neisseria meningitidis [2] it was 32.8%; in assay [3], 32.6%; in the assay on Neisseria meningitidis [4], 82%; in assay [5] it was 35.6%. Also, the Ki in assay [6] (read-out: Ki) is 4160 nM.

With `C=CCOC(=O)[C@H](Cc1ccc(F)cc1)NC(=O)[C@@H]1CCCCN1S(=O)(=O)Cc1ccc(F)cc1`, the result (in the assay on Neisseria meningitidis [2]; in assay [3]; in the assay on Neisseria meningitidis [4]) was inactive. Further, the Ki entry in assay [6] is on record as “Not Active”.

`O=C(NCc1cccnc1)[C@H](Cc1ccccc1)OC(=O)[C@H]1CCCCN1S(=O)(=O)c1ccccc1`: the Activity with Neisseria gonorrhoeae came to 68.4%; in the assay with Neisseria meningitidis [1], 35.2%; with Neisseria meningitidis [2] it was 122%; in assay [3], 147%; in the assay with Neisseria meningitidis [4], 27.2%; in assay [5] it was 82.7%. Besides, in assay [6] (read-out: Ki), the Ki turned out to be 42400 nM.

Consider `O=C(O[C@H](Cc1ccccc1)C(=O)NCc1cccnc1)[C@H]1CCCCN1S(=O)(=O)c1ccccc1`, for which the Activity with Neisseria gonorrhoeae was 58.6%; with Neisseria meningitidis [1] it was 21%; in the assay on Neisseria meningitidis [2], 108%; in assay [3], 155%; in the assay with Neisseria meningitidis [4], 51.3%; in assay [5] it was 74.3%. Besides, in assay [6], the Ki entry is recorded as “Not Active”.

As for `O=C(NCc1cccnc1)[C@@H](CCc1ccccc1)COC(=O)[C@@H]1CCCCN1S(=O)(=O)Cc1ccccc1`, the Activity with Neisseria gonorrhoeae is 19.8%; in the assay with Neisseria meningitidis [1] it was 16%; in the assay on Neisseria meningitidis [2], 11.1%; in assay [3] it was 14.8%; with Neisseria meningitidis [4] it was 54%; in assay [5], 70.6%. Besides, the Ki in assay [6] (read-out: Ki) stood at 15.3 nM.

With `O=C(NCc1cccnc1)[C@H](Cc1ccccc1)NC(=O)[C@@H]1CCCCN1S(=O)(=O)Cc1ccccc1`, the Activity with Neisseria gonorrhoeae was determined as 40.9%; in the assay on Neisseria meningitidis [1] it was 25%; with Neisseria meningitidis [2], 8.5%; in assay [3], 23.7%; with Neisseria meningitidis [4], 27.3%; in assay [5], 63.4%. In addition, in assay [6] (read-out: Ki), the Ki is 34.7 nM.

Consider `O=C(NCc1cccnc1)[C@@H](Cc1ccccc1)OC(=O)[C@@H]1CCCCN1S(=O)(=O)c1ccccc1`, for which the Activity in the assay on Neisseria gonorrhoeae was 73.2%; with Neisseria meningitidis [1] it was 26%; in the assay on Neisseria meningitidis [2], 106%; in assay [3], 151%; in the assay on Neisseria meningitidis [4] it was 51.1%; in assay [5], 65.9%. For the same compound, the Ki in assay [6] (read-out: Ki) came out at 41100 nM.

With `O=C(NCc1cccnc1)[C@@H](NC(=O)[C@@H]1CCCCN1S(=O)(=O)Cc1ccccc1)c1ccc(F)cc1`, the Activity with Neisseria gonorrhoeae amounted to 28%; in the assay on Neisseria meningitidis [1], 22.6%; with Neisseria meningitidis [2], 27.2%; in assay [3], 11.3%; with Neisseria meningitidis [4], 63.5%; in assay [5] it was 78.5%. Besides, the Ki in assay [6] (read-out: Ki) came out at 73.2 nM.

For the compound `O=C(NCc1cccnc1)[C@H](Cc1ccc(F)cc1)NC(=O)[C@@H]1CCCCN1S(=O)(=O)Cc1ccc(F)cc1`, the Activity in the assay with Neisseria gonorrhoeae came out at 50.8%; in the assay on Neisseria meningitidis [1], 47.9%; in the assay on Neisseria meningitidis [2], 37.2%; in assay [3], 12.5%; with Neisseria meningitidis [4], 11.5%; in assay [5] it was 68%. Besides, the Ki in assay [6] (read-out: Ki) amounted to 18.8 nM.

On to `CC(C)C[C@H](OC(=O)[C@@H]1CCCCN1S(=O)(=O)Cc1ccccc1)C(=O)NCc1cccnc1`, for which the Activity came out at 19.1% in the assay with Neisseria gonorrhoeae; 13% in the assay on Neisseria meningitidis [1]; 3.8% in the assay on Neisseria meningitidis [2]; 4.8% in assay [3]; 35.6% in the assay on Neisseria meningitidis [4]; 87.8% in assay [5]. Further, the Ki in assay [6] (read-out: Ki) was determined as 60.5 nM.

On to `C#CCOc1ccc(C[C@H](NC(=O)[C@@H]2CCCCN2S(=O)(=O)Cc2ccc(F)cc2)C(=O)NCc2cccnc2)cc1`, for which the Activity in the assay with Neisseria gonorrhoeae turned out to be 35.2%; in the assay with Neisseria meningitidis [1], 45.7%; in the assay on Neisseria meningitidis [2], 4.9%; in assay [3], 4.4%; in the assay with Neisseria meningitidis [4], 12.3%; in assay [5] it was 55.4%. In assay [6] (read-out: Ki), the Ki worked out at 34.3 nM.

In the case of `COCCOc1cc(OCCOC)cc(C(=O)NCCOC(=O)[C@@H]2CCCCN2S(=O)(=O)Cc2ccccc2)c1`, the Activity with Neisseria gonorrhoeae was determined as 21.5%; with Neisseria meningitidis [1], 19.6%; in the assay with Neisseria meningitidis [2] it was 88.9%; in assay [3], 52.3%; in the assay with Neisseria meningitidis [4], 85%; in assay [5] it was 71%. Also, the Ki in assay [6] (read-out: Ki) came out at 1060 nM.

As to `CC(C)C[C@@H](OC(=O)[C@@H]1CCCCN1S(=O)(=O)Cc1ccccc1)C(=O)NCc1cccnc1`, the outcome (with Neisseria meningitidis [2]; in assay [3]; in the assay on Neisseria meningitidis [4]) was inactive. In assay [6] (read-out: Ki), the Ki worked out at 2520 nM.

Regarding `O=C(NCc1ccc[n+]([O-])c1)[C@H](Cc1ccc(F)cc1)NC(=O)[C@@H]1CCCCN1S(=O)(=O)Cc1ccc(F)cc1`, the Activity in the assay on Neisseria gonorrhoeae is 44.2%; in the assay with Neisseria meningitidis [1], 52.8%; with Neisseria meningitidis [2], 24%; in assay [3], 40.9%; in the assay with Neisseria meningitidis [4] it was 49.4%; in assay [5] it was 51.7%. For the same compound, in assay [6] (read-out: Ki), the Ki is 1310 nM.

As to `CC(C)C[C@H](NC(=O)[C@@H]1CCCCN1S(=O)(=O)Cc1ccc(F)cc1)C(=O)NCc1ccc[n+]([O-])c1`, the Activity in the assay on Neisseria gonorrhoeae came out at 56.4%; with Neisseria meningitidis [1], 71.3%; in the assay with Neisseria meningitidis [2] it was 23.8%; in assay [3], 21%; with Neisseria meningitidis [4], 44.4%; in assay [5] it was 61.5%. Further, the Ki in assay [6] (read-out: Ki) is 148 nM.

For `O=C(NCCOC(=O)[C@@H]1CCCCN1S(=O)(=O)Cc1ccccc1)c1cccnc1`, the Activity was 27.1% in the assay with Neisseria gonorrhoeae; 41.1% in the assay with Neisseria meningitidis [1]; 61.9% in the assay on Neisseria meningitidis [2]; 50.3% in assay [3]; 52.2% with Neisseria meningitidis [4]; 68.9% in assay [5]. In addition, the Ki in assay [6] (read-out: Ki) was 3960 nM.

As a reminder, the Ki is a dissociation constant, usually derived from enzyme kinetics or from competition with a known ligand.

(Values after ChEMBL document CHEMBL5331130, “Analysis of Structure-Activity Relationships of Novel Inhibitors of the Macrophage Infectivity Potentiator (Mip) Proteins of Neisseria meningitidis, Neisseria gonorrhoeae, and Burkholderia pseudomallei” (J Med Chem, 2023).)
